Source: ChEMBL document CHEMBL3045319, “Synthesis, antitumor activity, and structureactivity relationship of some 4H-pyrano[3,2-h]quinoline and 7H-pyrimido[4,5:6,5]pyrano[3,2-h]quinoline derivatives” (Med Chem Res, 2013)
≈ marks a conversion by molar mass, not a printed value.

Legend:
HepG2 [1] = assay: Cytotoxicity against Homo sapiens (human) HepG2 cells assessed as cell viability at 12.5 ug/ml after 48 hr by MTT assay relative to control; assay type: functional; settings: HepG2, 48 h, read-out: Activity
HepG2 [2] = assay: Cytotoxicity against Homo sapiens (human) HepG2 cells assessed as cell viability at 3.125 ug/ml after 48 hr by MTT assay relative to control; assay type: functional; settings: HepG2, 48 h, read-out: Activity
HepG2 [3] = assay: Cytotoxicity against Homo sapiens (human) HepG2 cells assessed as cell viability at 50 ug/ml after 48 hr by MTT assay relative to control; assay type: functional; settings: HepG2, 48 h, read-out: Activity
[4] = Cytotoxicity against Homo sapiens (human) HCT cells after 48 hr by MTT assay; assay type: functional, cell-based
MCF7 [5] = assay: Cytotoxicity against Homo sapiens (human) MCF7 cells assessed as cell viability at 6.25 ug/ml after 48 hr by MTT assay relative to control; assay type: functional; settings: MCF7, 48 h, read-out: Activity
HepG2 [6] = assay: Cytotoxicity against Homo sapiens (human) HepG2 cells after 48 hr by MTT assay; assay type: functional, cell-based; settings: Homo sapiens, HepG2, 48 h; read-out: IC50
[7] = Cytotoxicity against Homo sapiens (human) HCT cells assessed as cell viability at 3.125 ug/ml after 48 hr by MTT assay relative to control; assay type: functional; settings: read-out: Activity
[8] = Cytotoxicity against Homo sapiens (human) HCT cells assessed as cell viability at 50 ug/ml after 48 hr by MTT assay relative to control; assay type: functional; settings: read-out: Activity
MCF7 [9] = assay: Cytotoxicity against Homo sapiens (human) MCF7 cells assessed as cell viability at 25 ug/ml after 48 hr by MTT assay relative to control; assay type: functional; settings: MCF7, 48 h, read-out: Activity
HepG2 [10] = assay: Cytotoxicity against Homo sapiens (human) HepG2 cells assessed as cell viability at 25 ug/ml after 48 hr by MTT assay relative to control; assay type: functional; settings: HepG2, 48 h, read-out: Activity
MCF7 [11] = assay: Cytotoxicity against Homo sapiens (human) MCF7 cells assessed as cell viability at 12.5 ug/ml after 48 hr by MTT assay relative to control; assay type: functional; settings: MCF7, 48 h, read-out: Activity
MCF7 [12] = assay: Cytotoxicity against Homo sapiens (human) MCF7 cells assessed as cell viability at 3.125 ug/ml after 48 hr by MTT assay relative to control; assay type: functional; settings: MCF7, 48 h, read-out: Activity
[13] = Cytotoxicity against Homo sapiens (human) HCT cells assessed as cell viability at 25 ug/ml after 48 hr by MTT assay relative to control; assay type: functional; settings: read-out: Activity
[14] = Cytotoxicity against Homo sapiens (human) HCT cells assessed as cell viability at 1.56 ug/ml after 48 hr by MTT assay relative to control; assay type: functional; settings: read-out: Activity
HepG2 [15] = assay: Cytotoxicity against Homo sapiens (human) HepG2 cells assessed as cell viability at 6.25 ug/ml after 48 hr by MTT assay relative to control; assay type: functional; settings: HepG2, 48 h, read-out: Activity
MCF7 [16] = assay: Cytotoxicity against Homo sapiens (human) MCF7 cells assessed as cell viability at 1.56 ug/ml after 48 hr by MTT assay relative to control; assay type: functional; settings: MCF7, 48 h, read-out: Activity
MCF7 [17] = assay: Cytotoxicity against Homo sapiens (human) MCF7 cells assessed as cell viability at 50 ug/ml after 48 hr by MTT assay relative to control; assay type: functional; settings: MCF7, 48 h, read-out: Activity
[18] = Cytotoxicity against Homo sapiens (human) HCT cells assessed as cell viability at 12.5 ug/ml after 48 hr by MTT assay relative to control; assay type: functional; settings: read-out: Activity
[19] = Cytotoxicity against Homo sapiens (human) HCT cells assessed as cell viability at 6.25 ug/ml after 48 hr by MTT assay relative to control; assay type: functional; settings: read-out: Activity
MCF7 [20] = assay: Cytotoxicity against Homo sapiens (human) MCF7 cells after 48 hr by MTT assay; assay type: functional, cell-based; settings: MCF7, 48 h
HepG2 [21] = assay: Cytotoxicity against Homo sapiens (human) HepG2 cells assessed as cell viability at 1.56 ug/ml after 48 hr by MTT assay relative to control; assay type: functional; settings: HepG2, 48 h, read-out: Activity

| SMILES | viability at 12.5 µg/mL (HepG2 [1]) [%] | viability at 3.125 µg/mL (HepG2 [2]) [%] | viability at 50 µg/mL (HepG2 [3]) [%] | IC50 [4] [µg/mL] | viability at 6.25 µg/mL (MCF7 [5]) [%] | IC50 (HepG2 [6]) [µg/mL] | viability at 3.125 µg/mL [7] [%] | viability at 50 µg/mL [8] [%] | viability at 25 µg/mL (MCF7 [9]) [%] | viability at 25 µg/mL (HepG2 [10]) [%] | viability at 12.5 µg/mL (MCF7 [11]) [%] | viability at 3.125 µg/mL (MCF7 [12]) [%] | viability at 25 µg/mL [13] [%] | viability at 1.56 µg/mL [14] [%] | viability at 6.25 µg/mL (HepG2 [15]) [%] | viability at 1.56 µg/mL (MCF7 [16]) [%] | viability at 50 µg/mL (MCF7 [17]) [%] | viability at 12.5 µg/mL [18] [%] | viability at 6.25 µg/mL [19] [%] | viability at 1.56 µg/mL (HepG2 [21]) [%] | further results |
| --- | --- | --- | --- | --- | --- | --- | --- | --- | --- | --- | --- | --- | --- | --- | --- | --- | --- | --- | --- | --- | --- |
| CCO/C=N/C1=C(C#N)C(c2ccc(Cl)cc2)c2ccc3cccnc3c2O1 (centres undefined) | 72.3 | 91 | 39.4 | 25.7 (≈ 65.9 µM) | 81.4 | 31.1 (≈ 79.8 µM) | 81.7 | 23.9 | 67.1 | 57.1 | 74.2 | 93 | 51.4 | 93.4 | 86.6 | 98.3 | 43 | 67.1 | 73.3 | 97.6 | IC50 (MCF7 [20]): 45.4 µg/mL (≈ 116 µM) |
| CCO/C=N/C1=C(C#N)C(c2ccc(Cl)cc2)c2ccc3ccc(C)nc3c2O1 (centres undefined) | 79.4 | 96.4 | 45.2 | 3.6 (≈ 8.91 µM) | 76.6 | 44.5 (≈ 110 µM) | 54.9 | 15.2 | 48.6 | 69 | 63.4 | 87.4 | 18.4 | 75.5 | 85.1 | 96.1 | 37.5 | 26 | 35.3 | 100 | IC50 (MCF7 [20]): 23.8 µg/mL (≈ 58.9 µM) |
| CCO/C=N/C1=C(C#N)C(c2ccc(Br)cc2)c2ccc3ccc(C)nc3c2O1 (centres undefined) | 76.4 | 94.6 | 34.6 | 5.8 (≈ 12.9 µM) | 87.6 | 37.1 (≈ 82.8 µM) | 62.9 | 19.8 | 67.4 | 62.9 | 79.2 | 95.4 | 23.3 | 81.9 | 83.3 | 98.1 | 56.6 | 34 | 46.5 | 100 | IC50 (MCF7 [20]): > 50 µg/mL |
| CN(C)/C=N/C1=C(C#N)C(c2ccc(Cl)cc2)c2ccc3cccnc3c2O1 (centres undefined) | 85.6 | 98.3 | 48.1 | 49.4 (≈ 127 µM) | 83.5 | 47.9 (≈ 123 µM) | 98.5 | 49.5 | 58 | 77.8 | 75.6 | 92 | 71.3 | 100 | 93 | 98.7 | 37.7 | 77.7 | 88.1 | 100 | IC50 (MCF7 [20]): 29.3 µg/mL (≈ 75.3 µM) |
| Cc1ccc2ccc3c(c2n1)OC(/N=C/N(C)C)=C(C#N)C3c1ccc(Cl)cc1 (centres undefined) | 94.7 | 100 | 68.2 | 28.2 (≈ 70 µM) | 76.9 | > 50 | 78.7 | 30.5 | 49.6 | 81.5 | 68.2 | 87.2 | 53.5 | 82 | 97.8 | 97 | 35 | 69.7 | 74.2 | 100 | IC50 (MCF7 [20]): 24.4 µg/mL (≈ 60.6 µM) |
| CC[C@]1(O)C[C@@H]2CN(CCc3c([nH]c4ccccc34)[C@@](C(=O)OC)(c3cc4c(cc3OC)N(C)[C@H]3[C@@](O)(C(=O)OC)[C@H](OC(C)=O)[C@]5(CC)C=CCN6CC[C@]43[C@@H]65)C2)C1 [VINBLASTINE] | 24.2 | 55 | 14.4 | 2.6 (≈ 3.21 µM) | 48.8 | – | 47.5 | 16.3 | 15.2 | 16.1 | 29.6 | 60.4 | 21.7 | 53.4 | 45.1 | 76.2 | 7.82 | 28.2 | 38.1 | 72.1 | – |
